This is an account of results in US20200113852A1, “METHODS OF PATIENT SELECTION AND TREATING TRXR- OR PRDX-OVEREXPRESSED CANCERS” (TRIACT THERAPEUTICS, INC., priority 2017, published 2020).

Data set [1] in a line: Phase I clinical trial GBM, pharmacokinetics. The class given is in vivo, human. The settings on record: for Metabolite/iniparib concentration ratio: arithmetic average±SD; for Cmax: geometric mean±SD, plasma. An excerpt: No cytochrome P450-inducing anticonvulsants. However, Gliadel was permitted.
Dosing is IV 2×/week continuous.

The next data set deals with MDA-MB-453 cells. The data set can be described thus: Iniparib metabolites release, XLC-MS/MS of incubation media. The class given is in vitro ADME, human. Also on record: unit not given beside the values. How it is done: (§1) Online solid phase extraction (SPE) was performed using the fully automated Spark Holland Symbiosis™ (Emmen, The Netherlands) in eXtraction Liquid Chromatography (XLC) mode. The Symbiosis™ has previously been described in detail (18). HySphere™ C18 HD 7 μm SPE cartridges were used (Spark Holland). Each cartridge was initially conditioned with 2 ml methanol+0.5% formic acid (FA) and then equilibrated with 2 ml water+0.5% FA, both at flow-rates of 4 ml/min. Sample (25 μl) was aspirated and loaded onto the cartridge with 1 ml water+0.5% FA at a flow-rate of 1 ml/min. […] After elution, the right clamp was washed successively with 2 ml water+0.5% FA, 2 ml methanol+0.5% FA and 2 ml water+0.5% FA at 4 ml/min. […] The mobile phase composition was returned to starting conditions over 1 min and maintained during 6 min for column equilibration. The total run time was 27 min. Mass spectrometry was performed using the Thermo® TSQ Quantum Discovery Max in electrospray positive ionization mode (Thermo, US) with the following parameters: capillary voltage=4.0 kV, capillary temperature=300° C., sheath gas pressure=40, auxiliary gas pressure=5.
(§2) All values are expressed as means±SEM of three independent experiments. ND., non detectable.

A further data set has as its system HCT116 cells. Described as above. The class given is in vitro ADME, human. Also on record: unit not given beside the values. How it is done:
as §1, §2

Data set [2] deals with Trx, JNK, p38MAPK, PARP in HCT116 cells. Briefly: Cell death signaling western blots (Trx oxidation, phospho-JNK, phospho-p38MAPK, cleaved-PARP).
Method: Cells extracts were analyzed by SDS-PAGE either under reducing conditions or under non-reducing conditions in the case of Trx blot followed by blots anti-phospho-JNK, anti-phospho-p38MAPK, anti-cleaved-PARP and anti-Trx. Results are representative of three independent experiments.
After 2 h at 4° C., lysates were clarified by centrifugation and protein amounts were measured using the BCA assay (Pierce, Thermo scientific).
Equal amounts of proteins were resolved by SDS-PAGE under either non-reducing or reducing (5% 2-mercaptoethanol, 20 min at 60° C.) conditions, using 4-20% gels (Novex, Invitrogen), then subjected to semi-dry electrophoretic transfer onto nitrocellulose membranes.
[3] abbreviates: HCT116 w BSO, 24 h after 100 μM Iniparib.

Where two headings read alike, the source gives them in different places.

As to `NC(=O)c1ccc(I)c(N)c1` [I-ABM, 4-iodo-3 aminobenzamide], the Metabolite/iniparib concentration ratio in data set [1] (5.1 mg/kg) is listed as 1.1 ± 0.6%; in data set [1] (6.1 mg/kg), 0.9 ± 0.6%; in data set [1] (6.8 mg/kg), 1.1 ± 0.9%; in data set [1] (8.0 mg/kg), 0.3 ± 0.1%; in data set [1] (8.6 mg/kg), 0.8 ± 0.6%; in data set [1] (9.5 mg/kg), 0.8 ± 0.6%. The Cmax (in general, the peak of the concentration-time curve) in data set [1] (human, 5.1 mg/kg IV 2×/week, read-out: Cmax) amounted to 5.7 ± 4.1 ng/mL; in data set [1] (human, 6.1 mg/kg IV 2×/week, read-out: Cmax), 7.2 ± 1.8 ng/mL; in data set [1] (human, 6.8 mg/kg IV 2×/week, read-out: Cmax), 8.4 ± 3.7 ng/mL; in data set [1] (human, 8.0 mg/kg IV 2×/week, read-out: Cmax) it was 10.3 ± 2.9 ng/mL; in data set [1] (human, 8.6 mg/kg IV 2×/week, read-out: Cmax), 9.7 ± 2.4 ng/mL; in data set [1] (human, 9.5 mg/kg IV 2×/week, read-out: Cmax), 13.6 ± 5.3 ng/mL. For the same molecule, the “Iniparib and metabolites in incubation media” value (shortened to “Iniparib and metabolites”) in the data set on MDA-MB-453 cells (MDA-MB-453 w BSO, 1 h after 100 μM Iniparib) came to 0.3 ± 0.1; with MDA-MB-453 cells (MDA-MB-453 w BSO, 5 h after 100 μM Iniparib), 1.4 ± 0.1; in the data set on MDA-MB-453 cells (MDA-MB-453 w BSO, 24 h after 100 μM Iniparib), 5.4 ± 0.2; with MDA-MB-453 cells (MDA-MB-453 w/o BSO, 1 h after 100 μM Iniparib) it was 0.2 ± 0.0; in the data set on MDA-MB-453 cells (MDA-MB-453 w/o BSO, 5 h after 100 μM Iniparib) it was 0.5 ± 0.2; in the data set on MDA-MB-453 cells (MDA-MB-453 w/o BSO, 24 h after 100 μM Iniparib), 2.6 ± 0.2. The “Iniparib and metabolites” value was determined as 0.3 ± 0.1 with HCT116 cells (HCT116 w BSO, 1 h after 100 μM Iniparib); 1.1 ± 0.3 with HCT116 cells (HCT116 w BSO, 5 h after 100 μM Iniparib); 4.4 ± 1.2 in the data set on HCT116 cells (setting [3]); 0.2 ± 0.1 with HCT116 cells (HCT116 w/o BSO, 1 h after 100 μM Iniparib); 0.4 ± 0.1 in the data set with HCT116 cells (HCT116 w/o BSO, 5 h after 100 μM Iniparib); 0.5 ± 0.2 in the data set with HCT116 cells (HCT116 w/o BSO, 24 h after 100 μM Iniparib).

As to `NC(=O)c1ccc(I)c(NO)c1` [I-HABM], the “Iniparib and metabolites” value with HCT116 cells (setting [3]) turned out to be 0.1 ± 0.0.

Take `Nc1cc(C(=O)O)ccc1I` [IABA]: the Cmax in data set [1] (5.1 mg/kg IV 2×/week) stood at 16.6 ± 5.2 ng/mL; in data set [1] (6.1 mg/kg IV 2×/week) it was 14.9 ± 8.3 ng/mL; in data set [1] (6.8 mg/kg IV 2×/week), 19.9 ± 6.6 ng/mL; in data set [1] (8.0 mg/kg IV 2×/week) it was 14.5 ± 15.0 ng/mL; in data set [1] (8.6 mg/kg IV 2×/week), 31.5 ± 10.4 ng/mL; in data set [1] (9.5 mg/kg IV 2×/week) it was 19.8 ± 14.0 ng/mL. Further, the Metabolite/iniparib concentration ratio is on record as 3.0 ± 2.0% in data set [1] (5.1 mg/kg); 2.0 ± 1.5% in data set [1] (6.1 mg/kg); 2.4 ± 1.4% in data set [1] (6.8 mg/kg); 0.7 ± 0.7% in data set [1] (8.0 mg/kg); 2.5 ± 1.4% in data set [1] (8.6 mg/kg); 2.0 ± 2.0% in data set [1] (9.5 mg/kg).

As to `CN[C@@H]1C[C@H]2O[C@@](C)([C@@H]1OC)n1c3ccccc3c3c4c(c5c6ccccc6n2c5c31)C(=O)NC4` [staurosporine, reference compound], in data set [2] (GSH-depleted HCT116), the PARP1 cleavage entry is “triggered PARP1 cleavage”. The Trx oxidation entry in data set [2] (GSH-depleted HCT116, 7 h or 24 h, 100 μM Iniparib, 1 μM Auranofin, 100 nM Staurosporin) was “unable to induce oxidation of Trx”.
